Reference: US7585861B2, “HIV inhibiting 1,2,4-triazines” (Janssen Pharmaceutica, N.V., priority 2003, dated 2009)

Tests used:
HIV [1] = assay: Test A: inhibition of the HIV-induced cytopathic effect in MT-4 cells (MTT); type: cell-based
Experimental: (§1) A rapid, sensitive and automated assay procedure was used for the in vitro evaluation of anti-HIV agents. An […] T4-cell line, MT-4, which was previously shown (Koyanagi et al., Int. J. Cancer, 36, 445-451, 1985) to be highly susceptible to and permissive for HIV infection, served as the target cell line. Inhibition of the HIV-induced cytopathic effect was used as the end point. The viability of both HIV- and mock-infected cells was assessed spectrophotometrically via the in situ reduction of 3-(4,5-dimethylthiazol-2-yl)-2,5-diphenyltetrazolium bromide (MTT). […] The percent protection achieved by the compound in HTV-infected cells was calculated by the following formula:
(§2) [formula] whereby (ODT)HIV is the optical density measured with a given concentration of the test compound in HIV-infected cells; (ODC)HIV is the optical density measured for the control unteated HIV-infected cells; (ODC)MOCK is the optical density measured for the control untreated mock-infected cells; all optical density values were determined at 540 nm. […] The ratio of CC50 to IC50 was defined as the selectivity index (SI).

[2] = Test A: cytotoxicity in mock-infected MT-4 cells (MTT); type: cell-based; conditions: human
Experimental: as §1, §2

HIV [3] = assay: Test B: HIV infection measured fluorometrically in MT-4 cells engineered with GFP (HIV-specific promotor); type: cell-based; conditions: Human immunodeficiency virus 1, MT4
Experimental: (§3) An […] T4-cell line, MT-4, which was previously shown (Koyanagi et al., Int. J. Cancer, 36, 445-451, 1985) to be highly susceptible to and permissive for HIV infection, served as the target cell line. In these cells, engineered with GFP (and an HIV-specific promotor), ongoing HIV-infection was measured fluorometrically. Cytotoxicity is measured in the same cells, but engineered with GFP under a constitutional promoter. The infection (or inhibition thereof) of HIV infected cells and the flourescence of mock-infected cells is assessed by the fluorescent GFP signal generated by the two above mentioned cell lines.

[4] = Test B: cytotoxicity in mock-infected MT-4 cells engineered with GFP under a constitutional promoter; type: cell-based; conditions: human
Experimental: as §3

mock-infected MT-4 cells = assay: as above; type: cell-based
Experimental: as §3

[5] = Human immunodeficiency virus 1, MT4, read-out: pIC50 (converted)

Structure (SMILES)	IC50 (HIV [3]) [nM]	CC50 [4] [nM]	PCC50 (mock-infected MT-4 cells)	further results
Cc1cc(CCC#N)cc(C)c1Nc1nnc(Cl)c(Nc2ccc(C#N)cc2)n1	–	–	–	melting point: 266 to 267 °C
Cc1cc(C#N)cc(C)c1Nc1cnnc(Nc2ccc(C#N)cc2)n1 [Compound 1]	–	–	–	IC50 (HIV [1]; [5]): 2e-09 M; CC50 ([2]; mock-infected MT-4 cells): > 100000 nM
Cc1cc(C#N)cc(C)c1Oc1nc(Nc2ccc(C#N)cc2)nnc1Cl [Compound 3]	–	–	–	IC50 (HIV [1]; [5]): 5.01e-09 M; CC50 ([2]; mock-infected MT-4 cells): > 100000 nM
COc1cc(OC)c(Nc2cnnc(Nc3ccc(C#N)cc3)n2)c(OC)c1 [Compound 36]	–	–	–	IC50 (HIV [1]; [5]): 5.01e-10 M; CC50 ([2]; mock-infected MT-4 cells): > 100000 nM
Cc1cc(C)c(Nc2nc(Nc3ccc(C#N)cc3)nnc2Cl)c(C)c1 [Compound 44]	–	–	–	IC50 (HIV [1]; Human immunodeficiency virus 1, MT4, read-out: pIC50 (M) (converted)): 2.51e-09 M; CC50 [2]: > 25100 nM
Cc1cc(/C=C/C(N)=O)cc(C)c1Oc1nc(Nc2ccc(C#N)cc2)nnc1C [Compound 48]	0.631	25100	–	–
Cc1cc(/C=C/C(N)=O)cc(C)c1Nc1nc(Nc2ccc(C#N)cc2)nnc1C [Compound 58]	251	10000	–	–
N#C/C=C/c1cc(F)c(Nc2nnc(Cl)c(Nc3ccc(C#N)cc3)n2)c(F)c1 [Compound 62]	3.16	25100	–	melting point: 276 to 277 °C
COc1cc(/C=C/C#N)cc(Cl)c1Nc1nc(Nc2ccc(C#N)cc2)nnc1C [Compound 70]	–	–	6.2	–
COc1cc(C=C(C)C#N)cc(C)c1Nc1nc(Nc2ccc(C#N)cc2)nnc1C [Compound 71]	–	–	5.1	–
N#CCCc1cc(Br)c(Nc2nnc(Cl)c(Nc3ccc(C#N)cc3)n2)c(Br)c1 [Compound 73]	–	–	<4.6	–
N#CCCc1cc(Cl)c(Nc2nnc(Cl)c(Nc3ccc(C#N)cc3)n2)c(Cl)c1 [Compound 74]	5.01	> 25100	–	melting point: 256 to 257 °C
N#CCCc1cc(Cl)c(Nc2nnc(Cl)c(Nc3ccc(C#N)cc3)n2)c(Br)c1 [Compound 75]	3.16	> 25100	–	melting point: 252 to 254 °C
N#C/C=C/c1cc(Cl)c(Nc2nnc(Cl)c(Nc3ccc(C#N)cc3)n2)c(Cl)c1 [Compound 76]	–	–	<4.6	–
N#C/C=C/c1cc(Cl)c(Nc2nnc(Cl)c(Nc3ccc(C#N)cc3)n2)c(Br)c1 [Compound 77]	–	–	5.0	–
